Converted amounts (≈) assume the structure as drawn. Where two headings read alike, the source gives them in different places.
How the values were obtained:
[1] = physchem; details: pH 7.4, aqueous buffer, kinetic from dmso stock
Summary of the method: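 DMSO doubling dilutions were diluted twenty-fold into 100 mM citrate (pH 4), PBS (pH 7.4) or carbonate-bicarbonate (pH 9). After 24 h equilibration at room temperature, absorbance was read at 620 nm. The reported value is the highest concentration without measurable precipitate.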

[2] = system: Staphylococcus aureus (Isolate ID ATCC 29213); assay: Antibacterial activity, MIC, S. aureus; type: cell-based; details: Staphylococcus aureus, ATCC29213, Gram positive strain; broth microdilution or agar dilution
Summary of the method: (§1)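 Readout is the MIC, established according to CLSI standard M7-A7 using either agar dilution or broth microdilution.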

[3] = system: Enterococcus faecalis (Isolate ID ATCC 29212); assay: Antibacterial activity, MIC, E. faecalis; type: cell-based; details: Enterococcus faecalis, ATCC29212; Gram positive strain; broth microdilution or agar dilution
Summary of the method: as §1

[4] = system: Streptococcus pyogenes (Isolate ID ATCC 51339); assay: Antibacterial activity, MIC, S. pyogenes; type: cell-based; details: Streptococcus pyogenes, ATCC51339, Gram positive strain; broth microdilution or agar dilution
Summary of the method: as §1

[5] = system: Haemophilus influenzae (Isolate ID ATCC 49247); assay: Antibacterial activity, MIC, H. influenzae; type: cell-based; details: Haemophilus influenzae, ATCC49247; Gram negative strain; broth microdilution or agar dilution
Summary of the method: as §1

[6] = Pharmacokinetic assay, IV and oral PK profile, mouse; type: in vivo; details: plasma
Protocol: (§2) Pharmacokinetic Assays: Determination of PK Profile
(§3) The pharmacokinetic profiles of compounds were determined by measuring the compound concentration in plasma by LC/MS/MS following a single intravenous or peroral administration of the compounds at a dose of 3 mg/kg. The concentrations described are the mean plasma concentrations at each time point from three animals. Intravenous dose formulation was administered as a single bolus dose through the tail vein. Oral dose formulation was administered to animals by an oral gavage needle. In both cases the dose volume was 5.0 mL/kg. Blood was collected from rats using a jugular vein catheter and from anesthetized mice through a capillary guided into the retro-orbital plexus. The collected blood was centrifuged to obtain plasma and the compounds extracted into methanol prior to determining the compound concentration by LC/MS/MS. The results for selected compounds of the invention are shown in FIGS. 2 to 8 where the X axis denotes time (hours) and the Y axis denotes plasma concentration (ng/mL). The Cmaxoral (μg/mL), AUCiv (μg·hr/mL), AUCoral (μg.hr/mL) and F(%) values are provided in the following table where Cmaxoral is the maximum oral concentration, AUC is area under the curve for intraveneous (IV) and oral and F (%) represents compound bioavailability as calculated by [AUCoral/AUCiv]×100%.

[7] = Pharmacokinetic assay, IV and oral PK profile, rat; type: in vivo; details: plasma; for bioavailability: [AUCoral/AUCiv]×100%, 3 mg/kg, read-out: F (%) bioavailability
Protocol: as §2, §3

[8] = molecular target: T1, Gyrase enzyme (A2B2 complex from Staphylococcus aureus) (UniProt P0A0K8); assay: Gyrase ATPase assay (S. aureus enzyme); type: biochemical
T1 construct: 2 mU/μl Gyrase enzyme (A2B2 complex from Staphylococcus aureus); Alternatively
Protocol: On-Target Enzyme Assay: Determination of Gyrase ATPase Activity
Gyrase converts ATP into ADP and inorganic phosphate. The released phosphate can be detected by the addition of malachite green solution and measured by monitoring the increase in absorbance at 600 nm. The ATPase assay is carried out in a buffer containing 2 mU/μl Gyrase enzyme (A2B2 complex from Staphylococcus aureus), 0.08 mg/ml double-stranded DNA, 8 mM HEPES.KOH pH 7.6, 100 mM K glutamate, 2 mM Mg acetate, 2 mM DTT, 0.01 mg/ml BSA, and 5% DMSO solution containing the inhibitor. Alternatively, the ATPase assay is carried out in a buffer containing 4.8 μg/mL Gyrase enzyme (A2B2 complex from Escherichia coli), 0.08 μg/mL ssDNA, 35 mM Tris pH 7.5, 24 mM KCl, 2 mM MgCl2, 6.5% Glycerol, 2 mM DTT, 1.8 mM Spermidine, 0.5 mg/mL BSA and 5% DMSO solution containing the inhibitor. The reaction is started by adding ATP to a final concentration of 1 mM and allowed to incubate at 30° C. for 60 minutes. The reaction is stopped by adding […] of malachite green solution (0.034% malachite green, 10 mM ammonium molybdate, 1 M HCl, 3.4% ethanol, 0.01% tween 20). Colour is allowed to develop for 5 minutes and the absorbance at 600 nm is measured spectrophotometrically. The IC50 values are determined from the absorbance readings using no compound and no enzyme controls.

[9] = Solubility Range (maximum solubility)
[10] = po, single peroral dose 3 mg/kg, read-out: AUCoral
[11] = single intravenous dose 3 mg/kg, read-out: AUCiv

| Structure (SMILES) | solubility at 24 h ([1]; Max Solubility) | solubility at 24 h ([1]; Solubility (pH 7.4)) | solubility at 24 h ([1]; Solubility Range) | solubility at 24 h [1, 9] | MIC [2] | MIC [3] | MIC [4] | MIC [5] | bioavailability ([6]; po, [AUCoral/AUCiv]×100%, 3 mg/kg, read-out: F (%) bioavailability) | AUC [6, 10] | AUC [6, 11] | Cmaxoral ([6]; single peroral dose 3 mg/kg) | bioavailability ([7]; po) | AUC [7, 10] | AUC [7, 11] | Cmaxoral ([7]; single peroral dose 3 mg/kg) | IC50 ([8]; read-out: Gyrase ATPase activity (IC50); enzyme source (S. aureus or E. coli) not given; 1 mM ATP, 30° C., 60 minutes) | IC50 ([8]; enzyme source (S. aureus or E. coli) not given; 1 mM ATP, 30° C., 60 minutes; read-out: Gyrase ATPase activity (IC50)) |
| --- | --- | --- | --- | --- | --- | --- | --- | --- | --- | --- | --- | --- | --- | --- | --- | --- | --- | --- |
| CCNC(=O)Nc1nc2c(F)c(-c3cnc(N4CCC(C)(C(=O)O)CC4)nc3)cc(-c3ccccn3)c2s1 [Compound 161, 1-[5-[2-(ethylcarbamoylamino)-4-fluoro-7-(2-pyridyl)-1,3-benzothiazol-5-yl]pyrimidin-2-yl]-4-methyl-piperidine-4-carboxylic acid] | ≥ 800 µg/mL | ≥ 800 µg/mL | > 800 µg/mL | > 800 µg/mL | ≤ 0.25 µg/mL | ≤ 0.25 µg/mL | ≤ 0.25 µg/mL | 0.25 to 1 µg/mL (≈ 0.467 to 1.87 µM) | – | – | – | – | 87% | 4200 ng·h/mL | 4800 ng·h/mL | 700 ng/mL | – | – |
| CCNC(=O)Nc1nc2cc(-c3cnc(N4CCC(C(N)=O)(c5ccccc5)CC4)nc3)cc(-c3ccccn3)c2s1 [Compound 185] | – | 6.25 µg/mL (≈ 10.8 µM) | < 12.5 µg/mL | – | 0.25 to 1 µg/mL (≈ 0.432 to 1.73 µM) | ≤ 0.25 µg/mL | 1 to 16 µg/mL (≈ 1.73 to 27.6 µM) | > 16 µg/mL | – | – | – | – | – | – | – | – | – | – |
| CCNC(=O)Nc1nc2cc(-c3nsc(N4CCC(CC)(C(=O)O)CC4)n3)cc(-c3ccccn3)c2s1 [Compound 232, 4-ethyl-1-(3-{2-[(ethylcarbamoyl)amino]-7-(pyridin-2-yl)-1,3-benzothiazol-5-yl}-1,2,4-thiadiazol-5-yl)piperidine-4-carboxylic acid] | – | – | – | – | 1 to 16 µg/mL (≈ 1.86 to 29.8 µM) | – | > 16 µg/mL | > 16 µg/mL | – | – | – | – | – | – | – | – | 930 nM | – |
| CCNC(=O)Nc1nc2cc(-c3cnc(N4CCC(CC)(C(=O)OCC)CC4)nc3)cc(-c3cnc(N4CCC(CC)(C(=O)OCC)CC4)nc3)c2o1 [Compound 234, Diethyl 1,1′-({2-[(ethylcarbamoyl)amino]-1,3-benzoxazole-5,7-diyl}dipyrimidine-5,2-diyl)bis(4-ethylpiperidine-4-carboxylate)] | – | – | – | – | > 16 µg/mL | – | > 16 µg/mL | – | – | – | – | – | – | – | – | – | – | > 1370 nM |

More lines, main results first:

| solubility at 24 h ([1]; Max Solubility) | solubility at 24 h ([1]; Solubility (pH 7.4)) | solubility at 24 h ([1]; Solubility Range) | solubility at 24 h [1, 9] | MIC [2] | MIC [3] | MIC [4] | MIC [5] | bioavailability ([6]; po, [AUCoral/AUCiv]×100%, 3 mg/kg, read-out: F (%) bioavailability) | AUC [6, 10] | AUC [6, 11] | Cmaxoral ([6]; single peroral dose 3 mg/kg) | bioavailability ([7]; po) | AUC [7, 10] | AUC [7, 11] | Cmaxoral ([7]; single peroral dose 3 mg/kg) | Structure (SMILES) | IC50 ([8]; read-out: Gyrase ATPase activity (IC50); enzyme source (S. aureus or E. coli) not given; 1 mM ATP, 30° C., 60 minutes) | IC50 ([8]; enzyme source (S. aureus or E. coli) not given; 1 mM ATP, 30° C., 60 minutes; read-out: Gyrase ATPase activity (IC50)) |
| --- | --- | --- | --- | --- | --- | --- | --- | --- | --- | --- | --- | --- | --- | --- | --- | --- | --- | --- |
| ≥ 800 µg/mL | ≥ 800 µg/mL | > 800 µg/mL | > 800 µg/mL | ≤ 0.25 µg/mL | ≤ 0.25 µg/mL | ≤ 0.25 µg/mL | 1 to 16 µg/mL (≈ 1.84 to 29.4 µM) | 83% | 16500 ng·h/mL | 20000 ng·h/mL | 4400 ng/mL | 95.9% | 34800 ng·h/mL | 36300 ng·h/mL | 5500 ng/mL | C=CCC1(C(=O)O)CCN(c2ncc(-c3cc(-c4ccccn4)c4sc(NC(=O)NCC)nc4c3)cn2)CC1 [Compound 136] | – | – |
| ≥ 800 µg/mL | ≥ 800 µg/mL | > 800 µg/mL | > 800 µg/mL | ≤ 0.25 µg/mL | ≤ 0.25 µg/mL | ≤ 0.25 µg/mL | 1 to 16 µg/mL (≈ 1.83 to 29.2 µM) | – | – | – | – | 8.9% | 700 ng·h/mL | 8300 ng·h/mL | 300 ng/mL | CCNC(=O)Nc1nc2cc(-c3cnc(N4CCC(COC)(C(=O)O)CC4)nc3)cc(-c3ccccn3)c2s1 [Compound 141] | – | – |
| ≥ 800 µg/mL | ≥ 800 µg/mL | > 800 µg/mL | > 800 µg/mL | ≤ 0.25 µg/mL | ≤ 0.25 µg/mL | ≤ 0.25 µg/mL | 1 to 16 µg/mL (≈ 1.84 to 29.4 µM) | – | – | – | – | 10% | 4700 ng·h/mL | 46900 ng·h/mL | 700 ng/mL | CCNC(=O)Nc1nc2cc(-c3cnc(N4CCC(C(=O)O)(C5CC5)CC4)nc3)cc(-c3ccccn3)c2s1 [Compound 143] | – | – |

Reference: US9181234B2, “Antibacterial compounds” (priority 2010, dated 2015)
